We go through 4 molecules from US20250098679A1, “HERBICIDAL PYRIDONE DERIVATIVES” (SYNGENTA CROP PROTECTION AG, priority 2021, published 2025).

Holding throughout (type): in vivo
Common to all, as to conditions: evaluated after 13 days

The subject of test [1] is Setaria faberi (SETFA). The test is described as follows: Pre-emergence Test, Setaria faberi (SETFA).
For test [2], the system named is Zea mays (ZEAMX). The test can be described thus: Post-emergence Test, Zea mays (ZEAMX). On the set-up: key to percentage damage caused to the plant, ZEAMX (five-point scale): 5=81-100%, 4=61-80%, 3=41-60%, 2=21-40%, 1=0-20% damage. The method in brief: (§1)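 Spray application at 1000 g/ha unless otherwise stated. Damage was scored 13 days later as 1 (0-20%) to 5 (81-100%).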

Test [3] deals with Amaranthus palmeri (AMAPA). The test can be described thus: Post-emergence Test, Amaranthus palmeri (AMAPA). On the set-up: key: 5=81-100%, 4=61-80%, 3=41-60%, 2=21-40%, 1=0-20% damage. The method in brief: as §1
Test [4] concerns Ipomoea hederacea (IPOHE). The test is described as follows: Pre-emergence Test, Ipomoea hederacea (IPOHE).
In test [5] the test system is Setaria faberi (SETFA). The test can be described thus: Post-emergence Test, Setaria faberi (SETFA). Also on record: key to percentage damage caused to the plant, SETFA (five-point scale): 5=81-100%, 4=61-80%, 3=41-60%, 2=21-40%, 1=0-20% damage. The method in brief: as §1
In test [6] the test system is Zea mays (ZEAMX). The test is described as follows: Pre-emergence Test, Zea mays (ZEAMX).
For test [7], the system named is Amaranthus retoflexus (AMARE). The test is described as follows: Pre-emergence Test, Amaranthus retoflexus (AMARE).
The subject of test [8] is Echinochloa crus-galli (ECHCG). The test is described as follows: Pre-emergence Test, Echinochloa crus-galli (ECHCG).
Test [9] has as its system Amaranthus retoflexus (AMARE). The test is described as follows: Post-emergence Test, Amaranthus retoflexus (AMARE). On the set-up: key to percentage damage caused to the plant, AMARE (five-point scale): 5=81-100%, 4=61-80%, 3=41-60%, 2=21-40%, 1=0-20% damage. The procedure, abridged:
as §1

The test system of test [10] is Ipomoea hederacea (IPOHE). The test is described as follows: Post-emergence Test, Ipomoea hederacea (IPOHE). On the set-up: key to percentage damage caused to the plant, IPOHE (five-point scale): 5=81-100%, 4=61-80%, 3=41-60%, 2=21-40%, 1=0-20% damage. The method in brief:
as §1

For test [11], the system named is Echinochloa crus-galli (ECHCG). The test is described as follows: Post-emergence Test, Echinochloa crus-galli (ECHCG). On the set-up: key to percentage damage caused to the plant, ECHCG (five-point scale): 5=81-100%, 4=61-80%, 3=41-60%, 2=21-40%, 1=0-20% damage. The method in brief:
as §1

The test system of test [12] is Amaranthus palmeri (AMAPA). The test can be described thus: Pre-emergence Test, Amaranthus palmeri (AMAPA).

Each structure is given as a SMILES string.

In the case of `CCOC(=O)c1cc(C(=O)OCC)n(Cc2cc(=O)c(C(=O)O)c(-c3ccc(Cl)c(Cl)c3)n2CC)n1` [Compound 112, 6-[[3,5-bis(ethoxycarbonyl)pyrazol-1-yl]methyl]-2-(3,4-dichlorophenyl)-1-ethyl-4-oxo-pyridine-3-carboxylic acid], the “Pre-emergence Test SETFA, percentage damage caused to the plant (five-point scale)” value in the test with Setaria faberi (SETFA) [1] (1000 g/ha) is 0. Besides, in the test with Zea mays (ZEAMX) [2] (1000 g/ha), the “percentage damage caused to the plant, ZEAMX (five-point scale)” value was 0. The “percentage damage caused to the plant, AMAPA (five-point scale)” value in [3] (1000 g/ha) was 1 (1=0-20%). Further, the “Pre-emergence Test IPOHE, percentage damage caused to the plant (five-point scale)” value in test [4] (1000 g/ha) was 0. Further, in the test with Setaria faberi (SETFA) [5] (1000 g/ha), the “percentage damage caused to the plant, SETFA (five-point scale)” value was 1 (1=0-20%). Further, the “Pre-emergence Test ZEAMX, percentage damage caused to the plant (five-point scale)” value with Zea mays (ZEAMX) [6] (1000 g/ha) is listed as 0. Also, in [7] (1000 g/ha), the “Pre-emergence Test AMARE, percentage damage caused to the plant (five-point scale)” value is listed as 1 (1=0-20%). In test [8] (1000 g/ha), the “Pre-emergence Test ECHCG, percentage damage caused to the plant (five-point scale)” value is reported as 0. Further, in test [9] (1000 g/ha), the “percentage damage caused to the plant, AMARE (five-point scale)” value was 1 (1=0-20%). For the same molecule, in test [10] (1000 g/ha), the “percentage damage caused to the plant, IPOHE (five-point scale)” value is 2 (2=21-40%). In addition, the “percentage damage caused to the plant, ECHCG (five-point scale)” value in test [11] (1000 g/ha) is reported as 2 (2=21-40%). Also, the “Pre-emergence Test AMAPA, percentage damage caused to the plant (five-point scale)” value in test [12] (1000 g/ha) is reported as 1 (1=0-20%).

As for `CCn1c(Cn2nc(C(=O)OC)cc2C(=O)OC)cc(=O)c(C(=O)O)c1-c1ccc(Cl)c(Cl)c1` [Compound 115, 6-[[3,5-bis(methoxycarbonyl)pyrazol-1-yl]methyl]-2-(3,4-dichlorophenyl)-1-ethyl-4-oxo-pyridine-3-carboxylic acid], in the test with Setaria faberi (SETFA) [1] (1000 g/ha), the “Pre-emergence Test SETFA, percentage damage caused to the plant (five-point scale)” value is 1 (1=0-20%). The results for the “percentage damage caused to the plant, ZEAMX (five-point scale)” value in the test on Zea mays (ZEAMX) [2] (250 g/Ha) and in the test with Zea mays (ZEAMX) [2] (1000 g/ha) were 0 and 1 (1=0-20%), respectively. In addition, the results for the “percentage damage caused to the plant, AMAPA (five-point scale)” value in [3] (250 g/Ha) and in test [3] (1000 g/ha) were 1 (1=0-20%) and 2 (2=21-40%), respectively. The “Pre-emergence Test IPOHE, percentage damage caused to the plant (five-point scale)” value in test [4] (1000 g/ha) was found to be 0. Besides, the “percentage damage caused to the plant, SETFA (five-point scale)” value in the test with Setaria faberi (SETFA) [5] (250 g/Ha) and in the test with Setaria faberi (SETFA) [5] (1000 g/ha) was 0 each time. Moreover, the “Pre-emergence Test ZEAMX, percentage damage caused to the plant (five-point scale)” value with Zea mays (ZEAMX) [6] (1000 g/ha) was found to be 0. Also, the “Pre-emergence Test AMARE, percentage damage caused to the plant (five-point scale)” value in test [7] (1000 g/ha) is given as 0. Also, the “Pre-emergence Test ECHCG, percentage damage caused to the plant (five-point scale)” value in test [8] (1000 g/ha) is 0. In addition, the “percentage damage caused to the plant, AMARE (five-point scale)” value was 1 (1=0-20%) in test [9] (250 g/Ha) and 0 in test [9] (1000 g/ha). Also, the “percentage damage caused to the plant, IPOHE (five-point scale)” value in test [10] (250 g/Ha) and in [10] (1000 g/ha) was 0 each time. Also, the “percentage damage caused to the plant, ECHCG (five-point scale)” value in test [11] (250 g/Ha) and in [11] (1000 g/ha) was 0 in each case. For the same molecule, the “Pre-emergence Test AMAPA, percentage damage caused to the plant (five-point scale)” value in [12] (1000 g/ha) is listed as 1 (1=0-20%).

Regarding `Cn1c(Cn2ccc(C(F)(F)F)n2)cc(=O)c(C(=O)O)c1-c1ccc(C#N)c(Cl)c1` [Compound 117, 2-(3-chloro-4-cyano-phenyl)-1-methyl-4-oxo-6-[[3-(trifluoromethyl)pyrazol-1-yl]methyl]pyridine-3-carboxylic acid], the “Pre-emergence Test SETFA, percentage damage caused to the plant (five-point scale)” value was 4 (4=61-80%) in the test with Setaria faberi (SETFA) [1] (250 g/Ha (*)) and 5 (5=81-100%) in the test on Setaria faberi (SETFA) [1] (1000 g/ha). Moreover, the figures for the “percentage damage caused to the plant, ZEAMX (five-point scale)” value in the test with Zea mays (ZEAMX) [2] (250 g/Ha) and in the test with Zea mays (ZEAMX) [2] (1000 g/ha) were 1 (1=0-20%) and 4 (4=61-80%), respectively. Moreover, the “percentage damage caused to the plant, AMAPA (five-point scale)” value is given as 0 in test [3] (250 g/Ha) and 2 (2=21-40%) in [3] (1000 g/ha). For the same molecule, the “Pre-emergence Test IPOHE, percentage damage caused to the plant (five-point scale)” value in test [4] (250 g/Ha (*)) is recorded as 0; in [4] (1000 g/ha) it was 2 (2=21-40%). Further, the “percentage damage caused to the plant, SETFA (five-point scale)” value in the test with Setaria faberi (SETFA) [5] (250 g/Ha) was 3 (3=41-60%); in the test on Setaria faberi (SETFA) [5] (1000 g/ha), 4 (4=61-80%). The “Pre-emergence Test ZEAMX, percentage damage caused to the plant (five-point scale)” value with Zea mays (ZEAMX) [6] (250 g/Ha (*)) is reported as 0; in the test with Zea mays (ZEAMX) [6] (1000 g/ha), 1 (1=0-20%). The entries for the “Pre-emergence Test AMARE, percentage damage caused to the plant (five-point scale)” value in test [7] (250 g/Ha (*)) and in test [7] (1000 g/ha) were 0 and 2 (2=21-40%), respectively. The “Pre-emergence Test ECHCG, percentage damage caused to the plant (five-point scale)” value in test [8] (250 g/Ha (*)) was 3 (3=41-60%); in test [8] (1000 g/ha), 4 (4=61-80%). Further, the “percentage damage caused to the plant, AMARE (five-point scale)” value in [9] (250 g/Ha) was 0; in test [9] (1000 g/ha), 1 (1=0-20%). For the same molecule, the “percentage damage caused to the plant, IPOHE (five-point scale)” value in test [10] (250 g/Ha) and in [10] (1000 g/ha) was 3 (3=41-60%) throughout. The “percentage damage caused to the plant, ECHCG (five-point scale)” value in test [11] (250 g/Ha) is 3 (3=41-60%); in [11] (1000 g/ha) it was 4 (4=61-80%). Also, the “Pre-emergence Test AMAPA, percentage damage caused to the plant (five-point scale)” value in test [12] (250 g/Ha (*)) is 1 (1=0-20%); in test [12] (1000 g/ha), 2 (2=21-40%).

As to `CCn1c(Cn2ccc(Cl)n2)cc(=O)c(C(=O)O)c1-c1ccc(C#N)c(Cl)c1` [Compound 119, 2-(3-chloro-4-cyano-phenyl)-6-[(3-chloropyrazol-1-yl)methyl]-1-ethyl-4-oxo-pyridine-3-carboxylic acid], the “Pre-emergence Test SETFA, percentage damage caused to the plant (five-point scale)” value in the test with Setaria faberi (SETFA) [1] (250 g/Ha (*)) was 3 (3=41-60%); with Setaria faberi (SETFA) [1] (1000 g/ha), 4 (4=61-80%). For the same molecule, the “percentage damage caused to the plant, ZEAMX (five-point scale)” value in the test with Zea mays (ZEAMX) [2] (250 g/Ha) and with Zea mays (ZEAMX) [2] (1000 g/ha) was 0 each time. For the same molecule, the “percentage damage caused to the plant, AMAPA (five-point scale)” value in [3] (250 g/Ha) worked out at 0. The “Pre-emergence Test IPOHE, percentage damage caused to the plant (five-point scale)” value in test [4] (250 g/Ha (*)) and in test [4] (1000 g/ha) was 0 each time. Further, the “percentage damage caused to the plant, SETFA (five-point scale)” value in the test with Setaria faberi (SETFA) [5] (250 g/Ha) is listed as 1 (1=0-20%); in the test on Setaria faberi (SETFA) [5] (1000 g/ha), 4 (4=61-80%). Also, the “Pre-emergence Test ZEAMX, percentage damage caused to the plant (five-point scale)” value in the test with Zea mays (ZEAMX) [6] (250 g/Ha (*)) and in the test on Zea mays (ZEAMX) [6] (1000 g/ha) was 0 in each case. The “Pre-emergence Test AMARE, percentage damage caused to the plant (five-point scale)” value in [7] (250 g/Ha (*)) and in test [7] (1000 g/ha) was 0 in each case. The “Pre-emergence Test ECHCG, percentage damage caused to the plant (five-point scale)” value in test [8] (250 g/Ha (*)) is recorded as 1 (1=0-20%); in test [8] (1000 g/ha), 3 (3=41-60%). Further, the “percentage damage caused to the plant, AMARE (five-point scale)” value in test [9] (250 g/Ha) is on record as 1 (1=0-20%); in test [9] (1000 g/ha), 0. Also, the “percentage damage caused to the plant, IPOHE (five-point scale)” value in [10] (250 g/Ha) is 1 (1=0-20%); in test [10] (1000 g/ha), 2 (2=21-40%). Besides, the “percentage damage caused to the plant, ECHCG (five-point scale)” value in test [11] (250 g/Ha) is reported as 1 (1=0-20%); in test [11] (1000 g/ha), 4 (4=61-80%). For the same molecule, the “Pre-emergence Test AMAPA, percentage damage caused to the plant (five-point scale)” value in test [12] (250 g/Ha (*)) and in test [12] (1000 g/ha) was 1 (1=0-20%) in each case.
